{"source": "patent US8741940B2", "about": "“Microbicidal composition” (Rohm and Haas Company, priority 2005, dated 2014)", "type_in_all_cases": "cell-based", "settings_in_all_cases": "for Qa (concentration of MBIT producing the end point, MIC): alone where Qb = 0, otherwise in the mixture", "key": {"[1]": {"tested_on": "Aspergillus niger (A. niger—ATCC 16404)", "assay": "Synergy test, microtiter plate high resolution MIC assay, mold in PDB medium", "set-up": "Qb (Second Component B) / Qa (First Component A): unit: ppm", "in_short": "(§1)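 High-resolution microtiter MICs spanned 2 to 10,000 ppm active, tested alongside varying BBIT or MBIT as component A. E. coli was run at ~5×10^6/mL in M9GY (0.2% glucose, 0.1% yeast extract) at 30 °C; C. albicans and A. niger at 5×10^5/mL in PDB. Synergy index is Qa/QA + Qb/QB, with >1 indicating antagonism.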"}, "[2]": {"tested_on": "Candida albicans (C. albicans—ATCC 10231)", "assay": "Synergy test, microtiter plate high resolution MIC assay, yeast in PDB medium", "set-up": "Qb (Second Component B) / Qa (First Component A): unit: ppm", "in_short": "as §1"}, "[3]": {"tested_on": "Escherichia coli (E. coli—ATCC #8739)", "assay": "Synergy test, microtiter plate high resolution MIC assay, bacterium in M9GY medium", "set-up": "Qa (First Component A) / Qb (Second Component B): unit: ppm", "in_short": "as §1"}, "[4]": {"settings": "A=MBIT, B=2-bromo-2-nitro-propane-1,3-diol (BNPD), A. niger 16404 - PDB, 4 days"}, "[5]": {"settings": "A=MBIT, B=BBIT, A. niger 16404 - PDB, 4 days"}, "[6]": {"settings": "A=MBIT, B=Benzalkonium chloride (Hyamine 3500), A. niger 16404 - PDB, 4 days"}, "[7]": {"settings": "A=MBIT, B=Benzisothiazolinone (BIT), A. niger 16404 - PDB, 7 days"}, "[8]": {"settings": "A=MBIT, B=Benzyl alcohol, A. niger 16404 - PDB, 4 days"}, "[9]": {"settings": "A=MBIT, B=Caprylyl glycol, A. niger 16404 - PDB, 4 days"}, "[10]": {"settings": "A=MBIT, B=Chlorphenesin, A. niger 16404 - PDB, 3 days"}, "[11]": {"settings": "A=MBIT, B=DMDM Hydantoin (DMDMH), A. niger 16404 - PDB, 3 days"}, "[12]": {"settings": "A=MBIT, B=dithio-2,2′-bis(N-methylbenzamide) (DTBMA), A. niger 16404 - PDB, 3 days"}, "[13]": {"settings": "A=MBIT, B=2-bromo-2-nitro-propane-1,3-diol (BNPD), C. albicans 10231 - PDB, 24 hours"}, "[14]": {"settings": "A=MBIT, B=BBIT, C. albicans 10231 - PDB, 48 hours"}, "[15]": {"settings": "A=MBIT, B=Benzalkonium chloride (Hyamine 3500), C. albicans 10231 - PDB, 24 hours"}, "[16]": {"settings": "A=MBIT, B=Benzisothiazolinone (BIT), C. albicans 10231 - PDB, 48 hours"}, "[17]": {"settings": "A=MBIT, B=Benzyl alcohol, C. albicans 10231 - PDB, 48 hours"}, "[18]": {"settings": "A=MBIT, B=Caprylyl glycol, C. albicans 10231 - PDB, 24 hours"}, "[19]": {"settings": "A=MBIT, B=Chlorphenesin, C. albicans 10231 - PDB, 72 hours"}, "[20]": {"settings": "A=MBIT, B=DMDM Hydantoin (DMDMH), C. albicans 10231 - PDB, 24 hours"}, "[21]": {"settings": "A=MBIT, B=dithio-2,2′-bis(N-methylbenzamide) (DTBMA), C. albicans 10231 - PDB, 24 hours"}, "[22]": {"settings": "C. albicans 10231, PDB, 24 hours"}, "[23]": {"settings": "C. albicans 10231, PDB, 48 hours"}, "[24]": {"settings": "C. albicans 10231, PDB, 72 hours"}, "[25]": {"settings": "A=MBIT, B=2-bromo-2-nitro-propane-1,3-diol (BNPD), E. coli 8739 - M9GY, 24 hours"}, "[26]": {"settings": "A=MBIT, B=BBIT, E. coli 8739 - M9GY, 24 hours"}, "[27]": {"settings": "A=MBIT, B=Benzalkonium chloride (Hyamine 3500), E. coli 8739 - M9GY, 24 hours"}, "[28]": {"settings": "A=MBIT, B=Benzisothiazolinone (BIT), E. coli 8739 - M9GY, 24 hours"}, "[29]": {"settings": "A=MBIT, B=Benzyl alcohol, E. coli 8739 - M9GY, 24 hours"}, "[30]": {"settings": "A=MBIT, B=Caprylyl glycol, E. coli 8739 - M9GY, 24 hours"}, "[31]": {"settings": "A=MBIT, B=Chlorphenesin, E. coli 8739 - M9GY, 24 hours"}, "[32]": {"settings": "A=MBIT, B=DMDM Hydantoin (DMDMH), E. coli 8739 - M9GY, 24 hours"}, "[33]": {"settings": "A=MBIT, B=dithio-2,2′-bis(N-methylbenzamide) (DTBMA), E. coli 8739 - M9GY, 24 hours"}}, "note": "Values joined by “and” are separate entries in the source; they are usually repeats but may differ in a detail not shown here. Identical values can stand only once. Like-named read-outs stand apart in the source and are kept apart here.", "data": [{"compound": "Cn1sc2ccccc2c1=O", "note": "[MBIT, N-methyl-1,2-benzisothiazolin-3-one]", "values": [{"measurement": "Qa (First Component A)", "setting": "[1]", "value": "30 and 40"}, {"measurement": "Qa (concentration of First Component A = MBIT at the end point)", "setting": "[1]", "value": 40}, {"measurement": "SI (synergy index)", "setting": "[1]", "value": 1.00}, {"measurement": "SI (synergy index)", "setting": "[1]; A. niger 16404, PDB, 3 days", "value": 1.00}, {"measurement": "Qa (concentration of MBIT producing the end point, MIC)", "setting": "[1]; A. niger 16404, PDB, 3 days", "value": "40 ppm and 20 ppm and 30 ppm"}, {"measurement": "SI (synergy index)", "setting": "[1]; A. niger 16404, PDB, 4 days", "value": 1.00}, {"measurement": "Qa (concentration of MBIT producing the end point, MIC)", "setting": "[1]; A. niger 16404, PDB, 4 days", "value": "30 ppm and 40 ppm"}, {"measurement": "SI (synergy index)", "setting": "[1]; A. niger 16404, PDB, 7 days", "value": 1.00}, {"measurement": "Qa (concentration of MBIT producing the end point, MIC)", "setting": "[1]; A. niger 16404, PDB, 7 days", "value": "50 ppm and 60 ppm"}, {"measurement": "Qa (First Component A)", "setting": "[1]; [4]", "value": 30}, {"measurement": "SI (synergy index)", "setting": "[1]; [4]", "value": 1.00}, {"measurement": "Qa (First Component A)", "setting": "[1]; [5]", "value": 40}, {"measurement": "SI (synergy index)", "setting": "[1]; [5]", "value": 1.00}, {"measurement": "Qa (First Component A)", "setting": "[1]; [6]", "value": 30}, {"measurement": "SI (synergy index)", "setting": "[1]; [6]", "value": 1.00}, {"measurement": "Qa (First Component A)", "setting": "[1]; [7]", "value": 50}, {"measurement": "SI (synergy index)", "setting": "[1]; [7]", "value": 1.00}, {"measurement": "Qa (First Component A)", "setting": "[1]; [8]", "value": 50}, {"measurement": "SI (synergy index)", "setting": "[1]; [8]", "value": 1.00}, {"measurement": "Qa (First Component A)", "setting": "[1]; [9]", "value": 20}, {"measurement": "SI (synergy index)", "setting": "[1]; [9]", "value": 1.00}, {"measurement": "Qa (First Component A)", "setting": "[1]; [10]", "value": 20}, {"measurement": "SI (synergy index)", "setting": "[1]; [10]", "value": 1.00}, {"measurement": "Qa (First Component A)", "setting": "[1]; [11]", "value": 40}, {"measurement": "SI (synergy index)", "setting": "[1]; [11]", "value": 1.00}, {"measurement": "Qa (First Component A)", "setting": "[1]; [12]", "value": 30}, {"measurement": "SI (synergy index)", "setting": "[1]; [12]", "value": 1.00}, {"measurement": "Qa (First Component A)", "setting": "[2]", "value": "8 and 10"}, {"measurement": "Qa (concentration of First Component A = MBIT at the end point)", "setting": "[2]", "value": 7.5}, {"measurement": "SI (synergy index)", "setting": "[2]", "value": 1.00}, {"measurement": "Qa (First Component A)", "setting": "[2]; [13]", "value": 8}, {"measurement": "SI (synergy index)", "setting": "[2]; [13]", "value": 1.00}, {"measurement": "Qa (First Component A)", "setting": "[2]; [14]", "value": 10}, {"measurement": "SI (synergy index)", "setting": "[2]; [14]", "value": 1.00}, {"measurement": "Qa (First Component A)", "setting": "[2]; [15]", "value": 8}, {"measurement": "SI (synergy index)", "setting": "[2]; [15]", "value": 1.00}, {"measurement": "Qa (First Component A)", "setting": "[2]; [16]", "value": 10}, {"measurement": "SI (synergy index)", "setting": "[2]; [16]", "value": 1.00}, {"measurement": "Qa (First Component A)", "setting": "[2]; [17]", "value": 10}, {"measurement": "SI (synergy index)", "setting": "[2]; [17]", "value": 1.00}, {"measurement": "Qa (First Component A)", "setting": "[2]; [18]", "value": 10}, {"measurement": "SI (synergy index)", "setting": "[2]; [18]", "value": 1.00}, {"measurement": "Qa (First Component A)", "setting": "[2]; [19]", "value": 10}, {"measurement": "SI (synergy index)", "setting": "[2]; [19]", "value": 1.00}, {"measurement": "Qa (First Component A)", "setting": "[2]; [20]", "value": 7.5}, {"measurement": "SI (synergy index)", "setting": "[2]; [20]", "value": 1.00}, {"measurement": "Qa (First Component A)", "setting": "[2]; [21]", "value": 10}, {"measurement": "SI (synergy index)", "setting": "[2]; [21]", "value": 1.00}, {"measurement": "SI (synergy index)", "setting": "[2]; [22]", "value": 1.00}, {"measurement": "Qa (concentration of MBIT producing the end point, MIC)", "setting": "[2]; [22]", "value": "7.5 ppm and 10 ppm and 15 ppm and 8 ppm"}, {"measurement": "SI (synergy index)", "setting": "[2]; [23]", "value": 1.00}, {"measurement": "Qa (concentration of MBIT producing the end point, MIC)", "setting": "[2]; [23]", "value": "7.5 ppm and 10 ppm"}, {"measurement": "SI (synergy index)", "setting": "[2]; [24]", "value": 1.00}, {"measurement": "Qa (concentration of MBIT producing the end point, MIC)", "setting": "[2]; [24]", "value": 15, "unit": "ppm"}, {"measurement": "Qa (First Component A)", "setting": "[3]", "value": "10 and 7.5"}, {"measurement": "Qa (concentration of First Component A = MBIT at the end point)", "setting": "[3]", "value": 10}, {"measurement": "SI (synergy index)", "setting": "[3]", "value": 1.00}, {"measurement": "Qa (First Component A)", "setting": "[3]; [25]", "value": 10}, {"measurement": "SI (synergy index)", "setting": "[3]; [25]", "value": 1.00}, {"measurement": "Qa (First Component A)", "setting": "[3]; [26]", "value": 10}, {"measurement": "SI (synergy index)", "setting": "[3]; [26]", "value": 1.00}, {"measurement": "Qa (First Component A)", "setting": "[3]; [27]", "value": 100}, {"measurement": "SI (synergy index)", "setting": "[3]; [27]", "value": 1.00}, {"measurement": "Qa (First Component A)", "setting": "[3]; [28]", "value": 10}, {"measurement": "SI (synergy index)", "setting": "[3]; [28]", "value": 1.00}, {"measurement": "Qa (First Component A)", "setting": "[3]; [29]", "value": 10}, {"measurement": "SI (synergy index)", "setting": "[3]; [29]", "value": 1.00}, {"measurement": "Qa (First Component A)", "setting": "[3]; [30]", "value": 10}, {"measurement": "SI (synergy index)", "setting": "[3]; [30]", "value": 1.00}, {"measurement": "Qa (First Component A)", "setting": "[3]; [31]", "value": 15}, {"measurement": "SI (synergy index)", "setting": "[3]; [31]", "value": 1.00}, {"measurement": "Qa (First Component A)", "setting": "[3]; [32]", "value": 10}, {"measurement": "SI (synergy index)", "setting": "[3]; [32]", "value": 1.00}, {"measurement": "Qa (First Component A)", "setting": "[3]; [33]", "value": 15}, {"measurement": "SI (synergy index)", "setting": "[3]; [33]", "value": 1.00}, {"measurement": "SI (synergy index)", "setting": "[3]; E. coli 8739, M9GY, 24 hours", "value": 1.00}, {"measurement": "Qa (concentration of MBIT producing the end point, MIC)", "setting": "[3]; E. coli 8739, M9GY, 24 hours", "value": "10 ppm and 15 ppm"}, {"measurement": "SI (synergy index)", "setting": "[3]; E. coli 8739, M9GY, 48 hours", "value": 1.00}, {"measurement": "Qa (concentration of MBIT producing the end point, MIC)", "setting": "[3]; E. coli 8739, M9GY, 48 hours", "value": "20 ppm and 15 ppm"}, {"measurement": "SI (synergy index)", "setting": "[3]; E. coli 8739, M9GY, 72 hours", "value": 1.00}, {"measurement": "Qa (concentration of MBIT producing the end point, MIC)", "setting": "[3]; E. coli 8739, M9GY, 72 hours", "value": 15, "unit": "ppm"}]}]}
